Entries after “also recorded” stand apart in the source; their conditions may differ. Where no end group is shown, it is not given here. [ ]: non-standard residue; d: D form.
Tests used:
[1] = tested on: Primary rat neuronal cells; test: Glutamate induced cell death of primary neurons, D and L amino acid synthetic peptides; assay type: cell-based; conditions: FIG. 21; for protection of neurons from glutamate induced cell death: 250 μM glutamate for 5 minutes; for protection offered by the D form relative to the L form of the peptide: same concentrations, glutamate induced cell death
From the text: D amino acid forms of peptides SP35 (designated D35) (SEQ ID NO: 132) and SP36 (designated D36) (SEQ ID NO: 136) comprising D amino acids other than glycine were produced synthetically, as were peptides SP35, SP36 and TIJIP comprising L-amino acids. The retro-inverted peptides further comprised a TAT protein targeting domain fused to the C-terminus of the inverted peptide moiety and separated therefrom by a single L-glycine residue in each case. The amino acid sequences of the retro-inverted peptide analogues of SEQ ID NOs: 132 and 136 are set forth in SEQ ID NOs: 181 and 182, respectively.
Primary rat neuronal cells were isolated and cultured using methods known in the art. Cells were then incubated in the presence or absence of a test peptide, a positive control peptide (Ti JIP) or a combination of known small-molecule glutamate inhibitors (MK801 and CNQX). Cells were incubated in the presence of 250 μM glutamate for 5 minutes to induce cell death representative of ischemia induced cell death.

[2] = tested on: Primary rat neuronal cells; test: Acute ischemia: anaerobic incubation of primary neurons (MTS assay); assay type: cell-based; conditions: anaerobic incubator for 35 minutes, peptide 15 mins pre-insult, MTS 24 hours later; FIG. 22
Experimental: Cells at the core of an ischemic event (e.g., a stroke) are subject to anaerobic conditions leading to severe energy depletion and glutamate release, which causes necrotic cell death. Such a condition is mimicked by incubating cell cultures in anaerobic conditions.
To determine the effect of peptides 35 (SEQ ID NO: 130) and 36 (SEQ ID NO: 134) comprising either D- or L-amino acids on an acute ischemic effect, primary rat neuronal cells were isolated and cultured. Synthetic peptides were added to cultures and the cells maintained in an anaerobic chamber for approximately 35 minutes. Cell survival was then measured.
Briefly, isolated rat neurons were treated with peptide for 15 mins pre-insult. After addition of peptide or control, Cells were washed in glucose free balanced salt solution containing deoxy glucose to prevent glycolysis. Cells were then incubated in anaerobic incubator for 35 minutes. Post insult, solution was removed, fresh media added to cells and MTS assayed for live cells 24 hours later.

[3] = target: T1, c-Jun (Homo sapiens, UniProt P05412); test: Co-immunoprecipitation of c-Jun with FLAG-tagged peptides from HEK293 cells; assay type: binding; conditions: anti-FLAG capture, anti-c-Jun detection, FIG. 16
T1 construct: expressed in transfected cells; host or cells: HEK293
Experimental: HEK293 cells were cultured in DMEM+10% FCS, 2 mM L-glutamine. On the day prior to transfection, cells were trypsinised and split into 6-well tissue culture plates so that they reached 80-90% confluency for transfection. Cells were co-transfected with pcDNA3-Jun (1.3 μg) and pcDNA3-peptide (2.6 μg) using Lipofectamine-2000 reagent (Life Technologies, U.S.A.) as per manufacturer's instructions. Forty-eight hours post-transfection, transfected cells were scraped from the plates, collected by centrifugation and proteins extracted in hypotonic lysis buffer (1OmM Tris, 1OmM NaCl, 2 mM EDTA, pH 7.5+protease inhibitors (Roche, U.S.A.)). Salt concentration was adjusted to 15OmM by addition of NaCl, debris pelleted and proteins in supernatant collected in fresh tubes.
A small aliquot (40 μl) of protein was set aside for western analysis. The remainder was incubated by rotation at 4° C. for two hours, with either anti-Flag conjugated agarose beads (Sigma-Aldrich, U.S.A.) anti-Flag antibody (Sigma-Aldrich), preconjugated to anti-mouse magnetic Dynabeads (Dynal Biotech, Norway) according to manufacturer's directions. Protein complexes bound to conjugated beads were collected by centrifugation or over a Dynal magnet, washed eight times for five minutes with NET-2 buffer (50 mM Tris-Cl pH7.5, 150 mM NaCl, 0.05% Nonidet P-40). […]

[4] = tested on: AP-I luciferase reporter; test: AP-1 luciferase reporter assay in K562-AP1 cells transfected with pcDNA3-peptide; assay type: cell-based; conditions: 48 hours after transfection, compared to control cells, p<0.05, FIG. 15
Experimental: The K562 cell line was stably-transfected with the AP-I luciferase reporter of the Mercury Profiling kit (Clontech, U.S.A.), and clonal cell line 26 established. In 6-well tissue culture plate format, K562-AP1 cells were transfected with either pcDNA3 control, pcDNA3-Jun or pcDNA3-peptide using Lipofectamine-2000 (Life Technologies), according to manufacturer's instructions. Transfections were incubated for 48 hours, cells collected and protein lysates extracted for luciferase assay according to Mercury Profiling kit and associated protocols. Luciferase assays were performed in independent triplicates, and results for each peptide subjected to statistical analysis (SPSS software package) to determine if they were different to Jun (positive control for AP-1 activation) or pcDNA-3 (negative control for AP-I activation).

[5] = tested on: Primary rat neurons; test: Glutamate induced cell death of primary neurons, in vitro ischemia model (MTS assay); assay type: cell-based; conditions: for rescue of primary neurons from glutamate induced cell death / number of cells surviving glutamate compared with TI-JIP: 250 μM glutamate; for rescue of primary neurons from glutamate induced cell death: live cells assayed 24 hours later, FIG. 19, 20; for number of cells surviving glutamate compared with TI-JIP: versus known c-Jun dimerization inhibitory peptide TI-JIP, FIG. 19
Experimental: Primary neuronal cells were isolated and cultured in the presence of glutamate (250 μM) for […] to induce cell death as a model of ischemia induced cell death.
Primary rat neurons were isolated from embryos (standard protocols), plated in cell culture dishes and maintained for 11 days in culture before experiment. Peptide was added 15 minutes to media before glutamate addition. Glutamate was added to final concentrations of 250 micromolar, for 5 mins at 37 degrees. Glutamate media removed, fresh media added. Assays for live cells done 24 hours later. Live cells were assayed using MTS assay.

[6] = tested on: SIRC cells; test: UV B induced cell death, FACS for propidium iodide and Annexin V; assay type: cell-based; conditions: 10 minutes UV B, media containing 10 micromolar peptide, FIG. 18c
Experimental: Cells were exposed to UV B radiation and the level of cell death determined. Briefly, corneal keratinocytes in culture were exposed to IOmins UV irradiation. Post-exposure, media was replaced with either normal media or media containing 10 micromolar peptide. Subsequently, cells were prepared for FACS analysis. FACS analysis was used to detect propidium iodide and the level of Annexin V in a cell to determine the number of cells undergoing necrosis, early apoptosis or late apoptosis.

T1 sequence (P05412 whole entry): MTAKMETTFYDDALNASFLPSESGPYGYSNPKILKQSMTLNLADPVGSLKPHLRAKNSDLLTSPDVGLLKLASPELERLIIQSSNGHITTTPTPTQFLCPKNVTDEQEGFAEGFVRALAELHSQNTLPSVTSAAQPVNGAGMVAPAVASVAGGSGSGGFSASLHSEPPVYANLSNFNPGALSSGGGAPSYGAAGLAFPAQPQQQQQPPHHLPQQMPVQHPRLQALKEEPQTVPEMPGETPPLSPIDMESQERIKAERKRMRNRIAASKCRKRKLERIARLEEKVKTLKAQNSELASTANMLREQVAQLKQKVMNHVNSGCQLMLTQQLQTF

| Substance | protection of neurons from glutamate induced cell death [1] | protection offered by the D form relative to the L form of the peptide [1] | rescue of cells from cell death caused by acute ischemia [2] | expression of a reporter gene under control of an AP-I regulatory region [4] | rescue of primary neurons from glutamate induced cell death [5] | number of cells surviving glutamate compared with TI-JIP [5] | other results |
| --- | --- | --- | --- | --- | --- | --- | --- |
| D35: retro-inverted analogue of SEQ ID NO: 132 with C-terminal TAT domain after a single L-glycine; SEQ ID NO: 181 ([dR][dE][dR][dR][dS][dS][dS][dQ][dI]GG[dS][dR][dI][dS][dQ][dY][dA]GRRRQRRKKRG; also: C-terminal TAT domain: chirality not given here) [Peptide D35] | protects a considerable proportion of neurons from glutamate induced cell death | superior | a considerable proportion of cells from cell death | – | – | – | – |
| D36: retro-inverted analogue of SEQ ID NO: 136 with C-terminal TAT domain after a single L-glycine; SEQ ID NO: 182 ([dP][dK][dI][dS][dQ][dY]G[dQ][dR][dR][dR]G[dQ][dL]GGRRRQRRKKRG; also: C-terminal TAT domain: chirality not given here) [Peptide D36] | protects a considerable proportion of neurons from glutamate induced cell death | equivalent | a considerable proportion of cells from cell death | – | – | – | – |
| SP20: c-Jun dimerization inhibitory peptide; amino acid SEQ ID NO: 94 with flanking vector sequence, 96 without (IYSSILWGTKWCVLLVITP) | – | – | – | – | – | – | binding of c-Jun in co-immunoprecipitation [3]: capable of binding c-Jun to a level detectable in a co-immunoprecipitation |
| SP34: c-Jun dimerization inhibitory peptide; amino acid SEQ ID NO: 126 with flanking vector sequence, 128 without (AYQSINSSPVLPENSQELSLHLKQHVTKS) | – | – | – | significantly reducing expression of a reporter gene | – | – | – |
| SP36: c-Jun dimerization inhibitory peptide; amino acid SEQ ID NO: 134 with flanking vector sequence, 136 without (GLQGRRRQGYQSIKP) | protects a considerable proportion of neurons from glutamate induced cell death | – | – | significantly reducing expression of a reporter gene | capable of rescuing a significant proportion of cells from cell death; also recorded: capable of rescuing almost all cells from cell death; also recorded: dose dependent manner | considerably greater | cells rescued from glutamate induced cell death ([5]; about 5 μM of peptide, FIG. 20): about 100%; number of cells undergoing apoptosis after UV B exposure [6]: capable of reducing the number of cells undergoing apoptosis |
| SP71: c-Jun dimerization inhibitory peptide; amino acid SEQ ID NO: 158 with flanking vector sequence, 160 without (PFFWRLNKIFYFIDSRVAAAILN) | – | – | – | significantly reducing expression of a reporter gene | capable of rescuing a significant proportion of cells from cell death | considerably greater | – |
